Consider 35 compounds from patent US20230331673A1, “COMPOSITION OF COMPOUNDS THAT MODULATE CELL METABOLISM AND METHODS OF USE” (CRESCENTA BIOSCIENCES, priority 2020, published 2023).

This test relates to differentiated 3T3-L1 mouse adipocyte cells. In words: Adipocyte glucose consumption in differentiated 3T3-L1 mouse adipocyte cells (loss of glucose from medium, colorimetric). Type of test: cell-based. The following applies: compound 10 μM, 22 to 24 hours, differentiated 3T3-L1 adipocytes, compound/DMSO, read-out: Glucose consumption (fold change) Mean. The protocol:
Activity of compounds on adipocyte glucose consumption was tested in differentiated 3T3-L1 mouse adipocyte cells. 3T3-L1 preadipocytes (ATCC) were routinely cultured in a growth medium composed of DMEM high-glucose (Sigma), 10% FBS (Gibco), 10 U/ml penicillin and 10 μg/ml streptomycin (P/S; Gibco). To induce adipogenic differentiation, a confluent layer of 3T3-L1 cells were incubated with the growth medium containing 2 μM rosiglitazone, 1 μM dexamethasone, 500 μM IBMX, and 1 μg/ml insulin (Sigma). Forty-eight (48) hours later (on day 2) and on days 4 and 6, medium of the cells was replaced with fresh medium containing 1 μg/ml insulin. On days 8 and 10, the medium was refreshed with regular growth medium and addition of insulin was omitted. On day 11 or 12, medium of the cells were replaced with fresh medium containing either the indicated compounds (10 μM) or the vehicle in which the compounds were dissolved (DMSO). The final concentration of DMSO was 0.1% (v/v). Growth medium containing 0.1% DMSO was incubated in culture wells containing no cells and used as control. Twenty-two to 24 hours later, medium was harvested and subjected to centrifugation at 10,000 g for 5 min. Glucose concentration in the supernatants was determined using a colorimetric assay (Glucose Assay Kit I, Eton Biosciences). Glucose consumption in compound and vehicle treated cells was measured as loss of glucose from the culture medium and represented as mean fold change (compound/DMSO) t standard deviation (SD).
As to `CCCCC1CCCc2c1n(Cc1cccc(C(N)=O)c1)c1c(C(=O)O)cccc21` (centres unmarked) [1-butyl-9-[(3-carbamoylphenyl)methyl]-2,3,4,9-tetrahydro-1H-carbazole-8-carboxylic acid], the fold induction at 10 µM was determined as 1.02. The value for `CCCCC1CCCc2c1n(Cc1cccc(C#N)c1)c1c(C(=O)O)cccc21` (centres unmarked) [1-butyl-9-[(3-cyanophenyl)methyl]-2,3,4,9-tetrahydro-1H-carbazole-8-carboxylic acid] was 1.14. The same measure for `CCCCC1CCCc2c(n(Cc3cccc(C(N)=O)c3)c3c(C(=O)NCC(=O)O)cccc23)C1` (centres unmarked) [2-({7-butyl-5-[(3-carbamoylphenyl)methyl]-5H,6H,7H,8H,9H,10H-cyclohepta[b]indol-4-yl}formamido)acetic acid]: 0.9; for `CCCCC1CCCc2c(n(Cc3cccc(C#N)c3)c3c(C(=O)NCC(=O)O)cccc23)C1` (centres unmarked) [2-({7-butyl-5-[(3-cyanophenyl)methyl]-5H,6H,7H,8H,9H,10H-cyclohepta[b]indol-4-yl}formamido)acetic acid]: 1.2; for `CCCCC1Cc2c(n(Cc3cccc(C(N)=O)c3)c3c(C(=O)O)cccc23)C1` (centres unmarked) [2-butyl-4-[(3-carbamoylphenyl)methyl]-1H,2H,3H,4H-cyclopenta[b]indole-5-carboxylic acid]: 1.14.

For the compound `CCCCC1Cc2c(n(Cc3cccc(C#N)c3)c3c(C(=O)O)cccc23)C1` (centres unmarked) [2-butyl-4-[(3-cyanophenyl)methyl]-1H,2H,3H,4H-cyclopenta[b]indole-5-carboxylic acid], the fold induction at 10 µM was 1.28.

Take `CCCCC1CCc2c(n(Cc3cccc(C(N)=O)c3)c3c(C(=O)O)cccc23)C1` (centres unmarked) [2-butyl-9-[(3-carbamoylphenyl)methyl]-2,3,4,9-tetrahydro-1H-carbazole-8-carboxylic acid]: the fold induction at 10 µM is 1.1.

Regarding `CCCCCCC1CCc2c(n(Cc3ccnc(OC)c3)c3c(C(=O)O)cccc23)C1` (centres unmarked) [2-hexyl-9-[(2-methoxypyridin-4-yl)methyl]-2,3,4,9-tetrahydro-1H-carbazole-8-carboxylic acid], the fold induction at 10 µM stood at 1.19. With `CCCCCCC1CCc2c(n(Cc3ccccc3C)c3c(C(=O)O)cccc23)C1` (centres unmarked) [2-hexyl-9-[(2-methylphenyl)methyl]-2,3,4,9-tetrahydro-1H-carbazole-8-carboxylic acid], the fold induction at 10 µM was found to be 1.23. The same measure for `CCCCCCC1CCc2c(n(Cc3cccc(O)c3)c3c(C(=O)O)cccc23)C1` (centres unmarked) [2-hexyl-9-[(3-hydroxyphenyl)methyl]-2,3,4,9-tetrahydro-1H-carbazole-8-carboxylic acid]: 1.11; for `CCCCCCC1CCc2c(n(Cc3cccnc3)c3c(C(=O)O)cccc23)C1` (centres unmarked) [2-hexyl-9-[(pyridin-3-yl)methyl]-2,3,4,9-tetrahydro-1H-carbazole-8-carboxylic acid]: 1.21; for `CCCCC1CCc2c1n(Cc1cccc(C(N)=O)c1)c1c(C(=O)O)cccc21` (centres unmarked) [3-butyl-4-[(3-carbamoylphenyl)methyl]-1H,2H,3H,4H-cyclopenta[b]indole-5-carboxylic acid]: 1.15. The value for `CCCCC1CCc2c1n(Cc1cccc(C#N)c1)c1c(C(=O)O)cccc21` (centres unmarked) [3-butyl-4-[(3-cyanophenyl)methyl]-1H,2H,3H,4H-cyclopenta[b]indole-5-carboxylic acid] was 1.21; that for `CCCCC1CCc2c(c3cccc(C(=O)O)c3n2Cc2cccc(C(N)=O)c2)C1` (centres unmarked) [3-butyl-9-[(3-carbamoylphenyl)methyl]-2,3,4,9-tetrahydro-1H-carbazole-8-carboxylic acid] was 1.09; that for `CCCCC1CCc2c(c3cccc(C(=O)O)c3n2Cc2cccc(C#N)c2)C1` (centres unmarked) [3-butyl-9-[(3-cyanophenyl)methyl]-2,3,4,9-tetrahydro-1H-carbazole-8-carboxylic acid] was 1.14. The value for `CCCCCC1Cc2c(n(Cc3cccc(C(N)=O)c3)c3c(C(=O)O)cccc23)C1` (centres unmarked) [4-[(3-carbamoylphenyl)methyl]-2-pentyl-1H,2H,3H,4H-cyclopenta[b]indole-5-carboxylic acid] was 0.68. For the compound `CCC1CCc2c1n(Cc1cccc(C(N)=O)c1)c1c(C(=O)O)cccc21` (centres unmarked) [4-[(3-carbamoylphenyl)methyl]-3-ethyl-1H,2H,3H,4H-cyclopenta[b]indole-5-carboxylic acid], the fold induction at 10 µM is 1.02.

As for `CCCC1CCc2c1n(Cc1cccc(C(N)=O)c1)c1c(C(=O)O)cccc21` (centres unmarked) [4-[(3-carbamoylphenyl)methyl]-3-propyl-1H,2H,3H,4H-cyclopenta[b]indole-5-carboxylic acid], the fold induction at 10 µM turned out to be 1.18.

As to `CCCCCC1Cc2c(n(Cc3cccc(C#N)c3)c3c(C(=O)O)cccc23)C1` (centres unmarked) [4-[(3-cyanophenyl)methyl]-2-pentyl-1H,2H,3H,4H-cyclopenta[b]indole-5-carboxylic acid], the fold induction at 10 µM was 1.18.

`CCC1CCc2c1n(Cc1cccc(C#N)c1)c1c(C(=O)O)cccc21` (centres unmarked) [4-[(3-cyanophenyl)methyl]-3-ethyl-1H,2H,3H,4H-cyclopenta[b]indole-5-carboxylic acid]: the fold induction at 10 µM stood at 1.12. The same measure for `CCCC1CCc2c1n(Cc1cccc(C#N)c1)c1c(C(=O)O)cccc21` (centres unmarked) [4-[(3-cyanophenyl)methyl]-3-propyl-1H,2H,3H,4H-cyclopenta[b]indole-5-carboxylic acid]: 1.38.

As for `CCCCC1CCCc2c1c1cccc(C(=O)O)c1n2Cc1cccc(C(N)=O)c1` (centres unmarked) [4-butyl-9-[(3-carbamoylphenyl)methyl]-2,3,4,9-tetrahydro-1H-carbazole-8-carboxylic acid], the fold induction at 10 µM was 1.35. `CCCCC1CCCc2c1c1cccc(C(=O)O)c1n2Cc1cccc(C#N)c1` (centres unmarked) [4-butyl-9-[(3-cyanophenyl)methyl]-2,3,4,9-tetrahydro-1H-carbazole-8-carboxylic acid]: the fold induction at 10 µM was determined as 1.28.

On to `CCCCCCC1CCCc2c(n(Cc3ccc4ncoc4c3)c3c(C(=O)O)cccc23)C1` (centres unmarked) [5-[(1,3-benzoxazol-6-yl)methyl]-7-hexyl-5H,6H,7H,8H,9H,10H-cyclohepta[b]indole-4-carboxylic acid], for which the fold induction at 10 µM turned out to be 1.17. The same measure for `CCCCCCC1CCCc2c(n(Cc3ccccc3C(N)=O)c3c(C(=O)O)cccc23)C1` (centres unmarked) [5-[(2-carbamoylphenyl)methyl]-7-hexyl-5H,6H,7H,8H,9H,10H-cyclohepta[b]indole-4-carboxylic acid]: 0.97; for `CCCCCCC1CCCc2c(n(Cc3ccccc3F)c3c(C(=O)O)cccc23)C1` (centres unmarked) [5-[(2-fluorophenyl)methyl]-7-hexyl-5H,6H,7H,8H,9H,10H-cyclohepta[b]indole-4-carboxylic acid]: 1.17; for `CCCCCCC1CCCc2c(n(Cc3c(C)noc3C)c3c(C(=O)O)cccc23)C1` (centres unmarked) [5-[(3,5-dimethyl-1,2-oxazol-4-yl)methyl]-7-hexyl-5H,6H,7H,8H,9H,10H-cyclohepta[b]indole-4-carboxylic acid]: 0.95. The value for `CCC1CCCc2c(n(Cc3cccc(C(N)=O)c3)c3c(C(=O)O)cccc23)C1` (centres unmarked) [5-[(3-carbamoylphenyl)methyl]-7-ethyl-5H,6H,7H,8H,9H,10H-cyclohepta[b]indole-4-carboxylic acid] was 0.96; that for `CCCCCCC1CCCc2c(n(Cc3cccc(C(N)=O)c3)c3c(C(=O)O)cccc23)C1` (centres unmarked) [5-[(3-carbamoylphenyl)methyl]-7-hexyl-5H,6H,7H,8H,9H,10H-cyclohepta[b]indole-4-carboxylic acid] was 1.26. The value for `CCCCCCCCC1CCCc2c(n(Cc3cccc(C(N)=O)c3)c3c(C(=O)O)cccc23)C1` (centres unmarked) [5-[(3-carbamoylphenyl)methyl]-7-octyl-5H,6H,7H,8H,9H,10H-cyclohepta[b]indole-4-carboxylic acid] was 1.13; that for `CCCCCC1CCCc2c(n(Cc3cccc(C(N)=O)c3)c3c(C(=O)O)cccc23)C1` (centres unmarked) [5-[(3-carbamoylphenyl)methyl]-7-pentyl-5H,6H,7H,8H,9H,10H-cyclohepta[b]indole-4-carboxylic acid] was 1.27; that for `CCCC1CCCc2c(n(Cc3cccc(C(N)=O)c3)c3c(C(=O)O)cccc23)C1` (centres unmarked) [5-[(3-carbamoylphenyl)methyl]-7-propyl-5H,6H,7H,8H,9H,10H-cyclohepta[b]indole-4-carboxylic acid] was 1.06.

For the compound `CCC1CCCCc2c1c1cccc(C(=O)O)c1n2Cc1cccc(C(N)=O)c1` (centres unmarked) [5-[(3-carbamoylphenyl)methyl]-10-ethyl-5H,6H,7H,8H,9H,10H-cyclohepta[b]indole-4-carboxylic acid], the fold induction at 10 µM is 0.99. For `CCCCCC1CCCCc2c1c1cccc(C(=O)O)c1n2Cc1cccc(C(N)=O)c1` (centres unmarked) [5-[(3-carbamoylphenyl)methyl]-10-pentyl-5H,6H,7H,8H,9H,10H-cyclohepta[b]indole-4-carboxylic acid], the fold induction at 10 µM stood at 1.27. The same measure for `CCCC1CCCCc2c1c1cccc(C(=O)O)c1n2Cc1cccc(C(N)=O)c1` (centres unmarked) [5-[(3-carbamoylphenyl)methyl]-10-propyl-5H,6H,7H,8H,9H,10H-cyclohepta[b]indole-4-carboxylic acid]: 1.02.
